Results: ChEMBL document CHEMBL6109158, “Discovery of Novel Bifunctional Agents as Potent Androgen Receptor Antagonists and Degraders for the Treatment of Enzalutamide-Resistant Prostate Cancer” (J Med Chem, 2025)

Assays:
[1] = tested on: LNCaP C4-2; assay: cells; assay type: functional, cell-based; settings: Homo sapiens
Description: Antiproliferative activity against human C4-2 cells assessed as inhibition of cell growth incubated for 7 days by celltiter-glo assay

[2] = cells; assay type: functional, cell-based; settings: Homo sapiens, Enzalutamide-resistant C4-2B
[3] = tested on: LNCaP; assay: cells; assay type: functional, cell-based; settings: Homo sapiens
Description: Antiproliferative activity against human LNCaP cells assessed as inhibition of cell growth incubated for 7 days by celltiter-glo assay

[4] = in vivo; settings: male, C57BL/6, mouse, iv, 1 mg/kg
Description: Half life in male C57BL/6 mouse at 1 mg/kg, iv

[5] = in vivo; settings: male, C57BL/6, mouse, iv, 1 mg/kg; remark: listed apart in the source
Description: Clearance in male C57BL/6 mouse at 1 mg/kg, iv

[6] = in vivo; settings: male, C57BL/6, mouse, iv, 1 mg/kg; remark: listed apart in the source
[7] = in vivo; settings: male, C57BL/6, mouse, iv, 1 mg/kg; remark: listed apart in the source
Description: C0 in male C57BL/6 mouse at 1 mg/kg, iv

[8] = in vivo; settings: male, C57BL/6, mouse, iv, 1 mg/kg; remark: listed apart in the source
Description: Volume of distribution at steady state in male C57BL/6 mouse at 1 mg/kg, iv

[9] = in vivo; settings: male, C57BL/6, mouse, brain, iv, 1 mg/kg
Description: Ratio of drug concentration in male C57BL/6 mouse brain to plasma at 1 mg/kg, iv measured after 1 hr

[10] = in vitro; settings: mouse, microsomes
Description: Metabolic stability in mouse liver microsomes assessed as half life

[11] = in vitro; settings: mouse, microsomes; remark: listed apart in the source
[12] = in vitro; settings: human, microsomes
[13] = in vitro; settings: human, microsomes; remark: listed apart in the source
[14] = tested on: CWR22R; assay: cells; assay type: functional, cell-based; settings: Homo sapiens, 22Rv1, […]
Description: Antiproliferative activity against human 22Rv1 cells assessed as inhibition of cell growth incubated for 7 days by celltiter-glo assay

## C[C@](O)(CN1CC2CCC(C1)N2c1ccc(C#N)cc1)C(=O)Nc1ccc(C#N)c(Cl)c1
[1]
  IC50: 1.19 µM
[2]
  IC50: 5.23 µM
[3]
  IC50: 1.57 µM
[4]
  half-life: 244 min
[5]
  clearance: 7.09 mL/min/kg
[6]
  AUC(0-t): 2330 ng·h/mL
[7]
  C0: 1420 ng/mL
[8]
  Vd: 1.87 L/kg
[9]
  Kp at 1 h: 0.55
[10]
  half-life: 12.2 min
[11]
  microsomal CLint: 114 µL/min/mg
[12]
  half-life: 9.95 min
[13]
  microsomal CLint: 139 µL/min/mg

## COc1cc(NC(=O)[C@@](C)(O)CN2CC3CCC(C2)N3c2ccc(C#N)cc2)ccc1C#N
[14]
  IC50: 2.23 µM

## C[C@](O)(CN1C[C@@H]2C[C@H]1CN2c1ccc(C#N)cc1)C(=O)Nc1ccc(C#N)c(C(F)(F)F)c1
[14]
  IC50: 10 µM

## COc1cc(C#N)ccc1N1C2CCC1CN(C[C@](C)(O)C(=O)Nc1ccc(C#N)c(C(F)(F)F)c1)C2
[14]
  IC50: 4.12 µM

## C[C@](O)(CN1CC2CCC(C1)N2c1cnc(C#N)nc1)C(=O)Nc1cnc(C#N)c(C(F)(F)F)c1
[14]
  IC50: 15.8 µM

## CC(O)c1cc(C(=O)N[C@@H](C)Cn2ccc(-c3ccc(C#N)c(Cl)c3)n2)n[nH]1 (some centres not stated) [DAROLUTAMIDE]
[14]
  IC50: 31.2 µM

## C[C@](O)(CN1CC2CCC(C1)N2Cc1ccc(C#N)cc1)C(=O)Nc1ccc(C#N)c(C(F)(F)F)c1
[14]
  IC50: 20.5 µM

## C[C@](O)(Cn1ccc2cc(F)ccc21)C(=O)Nc1ccc(C#N)c(C(F)(F)F)c1
[14]
  IC50: 3.53 µM

## C[C@](O)(CN1CC2CCC(C1)N2c1ccc(F)cc1)C(=O)Nc1ccc(C#N)c(C(F)(F)F)c1
[14]
  IC50: 12.9 µM

## N#Cc1ccc(O[C@H]2CC[C@H](NC(=O)c3ccc(N4CCC(CN5CCN(c6cc7c(cc6F)C(=O)N(C6CCC(=O)NC6=O)C7=O)CC5)CC4)nn3)CC2)cc1Cl (some centres not stated) [BAVDEGALUTAMIDE]
[14]
  IC50: > 100 µM

## C[C@]12CC[C@H](O)CC1=CC[C@@H]1[C@@H]2CC[C@]2(C)C(n3cnc4ccccc43)=CC[C@@H]12 [GALETERONE]
[14]
  IC50: 12 µM

## Cc1cc(C#N)ccc1N1C2CCC1CN(C[C@](C)(O)C(=O)Nc1ccc(C#N)c(C(F)(F)F)c1)C2
[14]
  IC50: 3.08 µM

## C[C@](O)(CN1CC2CCC(C1)N2c1ncc(C#N)cn1)C(=O)Nc1ccc(C#N)c(C(F)(F)F)c1
[14]
  IC50: 4.05 µM

## C[C@](O)(CN1CC2CCC(C1)N2c1cnc(C#N)nc1)C(=O)Nc1ccc(C#N)c(C(F)(F)F)c1
[14]
  IC50: 5.24 µM

## C[C@](O)(CN1CC2CCC(C1)N2c1ccc(C#N)cc1)C(=O)Nc1cnc(C#N)c(Cl)c1
[14]
  IC50: 1.68 µM
[4]
  half-life: 96.6 min
[5]
  clearance: 16.2 mL/min/kg
[6]
  AUC(0-t): 1030 ng·h/mL
[7]
  C0: 1140 ng/mL
[8]
  Vd: 1.42 L/kg
[9]
  Kp at 1 h: 0.33

## CNC(=O)c1ccc(N2C(=S)N(c3cnc(C#N)c(C(F)(F)F)c3)C(=O)C23CCC3)cc1F [APALUTAMIDE]
[14]
  IC50: > 100 µM

## C[C@](O)(CN1CC2CCC(C1)N2c1ccc(C#N)cn1)C(=O)Nc1ccc(C#N)c(C(F)(F)F)c1
[14]
  IC50: 2.28 µM

## COc1c(C#N)ccc(NC(=O)[C@@](C)(O)CN2CC3CCC(C2)N3c2ccc(C#N)cc2)c1F
[14]
  IC50: 5.3 µM

## C[C@](O)(CN1CC2CCC(C1)N2c1ccc(C#N)cc1)C(=O)Nc1ccc([N+](=O)[O-])c(C(F)(F)F)c1
[14]
  IC50: 1.65 µM
